Read-outs that look alike come from different tables or passages of the source.
Legend:
[1] = system: SETVI; experiment: In-planta LTP post-emergence, visual phenotype; format: in vivo, Setaria viridis; conditions: monocot
Protocol: (§1) A basic panel of eight weed species (Table 3) sowed in 4×4×7 cm plastic pots containing a garden mix (klasmann). Each specie was sowed in a separate pot. In each pot, 10-15 seeds were sowed according to the specie viability. Timing of application determined at a 1-2 true leaf stage. The plants grew for 30 days in a controlled greenhouse (26±2° C. day, 20±2° C. night). Hood irrigation (tap water+Shefer 5:3:8 8 mM) was given at a 50% water content by weight. Two days before application, the tested plants thinned down to three plants per pot. Compounds were soluble in water (DDW), and commercial herbicide control was soluble in formulation B (Table 4). […] Plants were evaluated at 3 time points (4, 8, 12 days after application (DAA)). At each time point, visual phenotyping was recorded using a scale of 0-6 (0: no visible effect, 6: maximum effect). […]
(§2) Post-emergence advanced dose response experiment included 4 species: SETVI, ECHCO, AMAPA, ABUTH (Tables 3, 5). […] Plants were evaluated at 4 time points (6, 12, 18 and 26 DAA). At each time point, visual phenotyping was recorded using a scale of 0-6 (0: no visible effect, 6: maximum effect). […]
(§3) Post-emergence advanced wide panel experiment included 24 weed species (Table 5). […] Visual phenotyping was recorded at 4, 11, 17 and 20 DAA using a scale of 0-6 (0: no visible effect, 6: maximum effect). […]

[2] = system: Arabidopsis thaliana; experiment: HTPS - Dicot - Pre-emergence; format: in vivo; conditions: N/A: not active; for Emax: read-out: HTPS - Dicot - Pre Max effect
Protocol: Arabidopsis thaliana seeds were sown in 96 well plates filled with irrigated Sweet sand (10%>clay) that is washed from salts and minerals using tap water. 5-10 seeds were sown in the center of each well. 7-8 days post sowing, at 2 true leaves stage, thinning out was performed to ensure that compound application is done on a single plant per well. The plates were placed in a controlled greenhouse in a random order inside a bath which allows flooding irrigation with tap water supplemented with a fertilizer. Applied compounds were dissolved into a final solution of 50% acetone, 49.9% DDW, 0.1% tween-20. A 96 well plate was used as a stock plate for preparing application solutions for 8 repeats. Each row contained different concentrations per chemical. Maximal concentration for application was 1.5 Kg/Ha and dilution factor is 2.5. Chemical application was performed one day after thinning out in a chemical hood. 5 μL applied on first two true leaves in each well using 12 channel pipettes. Data collection: RGB (red, green, blue) data for green area per well was documented using camera. Data is collected at a few time points during the experiment: one day after thinning and before chemical application, two-, six- or nine-days post application. During the last two documentations, visual phenotyping was performed. Data analysis: Given RGB results and visual phenotype scores, a student t-test conducted to compare between treatment and control performance for continuous data (RGB) and Fisher exact test to analyze the non-continuous data (phenotypic scores). Dose-Response curves are generated for each treatment to infer ED50 and max. inhibition parameters, using treatment's log concentration range as the […] variable and normalized green area. These experiments are conducted similarly except that either Arabidopsis thaliana or Eragrostis teff seeds were sowed (5-10 or 5-7, respectively), plant thinning out was not performed, compound dissolved into a final solution of 50% acetone, 49.9% DDW, compound application was done at 30 μL volume per well directly on sowed soil before plant emergence and data was collected 10 or 7 days after chemical application on dicot or monocot plants, respectively. Plate imaging performed at 11 and 18 DAA. RGB data for green area per well was documented and used to extract % inhibition. Dose-Response curves were built for each treatment to infer ED50, ED75 and ED90 parameters, using treatment's log concentration range as the independent variable and normalized green area as the dependent variable. Treatments were compared to controls performance given RGB results and using student's t-test (p-val≤0.05).

[3] = system: ALOMY; experiment: In-planta LTP pre-emergence, visual phenotype; format: in vivo, Alopecurus myosuroides; conditions: monocot
Protocol: (§4) A basic panel of 8 weed species (Table 3) were sowed in 4×4×7 cm plastic pots containing inert sand (Sweet sand), intensively washed using osmosis water. Each specie was sowed in a separate pot. In each pot 10-15 seeds were sowed according to the specie viability. Sowing was performed one day before application. The plants were grown for 21 days in a controlled greenhouse (26±2° C. day 20±2° C. night). Hood irrigation (tap water+Shefer 5:3:8 8 mM) was given at a 50% water content by weight. Compounds were soluble in water (DDW), and commercial herbicide control was soluble in formulation B (Table 4). Application was conducted with an industrial sprayer (TeeJet 6502E nozzle) at a rate of 2 kg/ha and spray volume of […]. Pre-emergence advanced dose response experiment application was conducted at six rates between 1-0.0312 kg/ha and spray volume of […]. Percentage of emergence was evaluated at 15 DAA. Visual phenotyping was recorded using a scale of 0-6 (0: no visible effect, 6: maximum effect) at 18 DAA. All experiments included an untreated control, a solvent control and a positive control (commercial herbicide A.I.). Statistical analysis for visual phenotyping determined by a median value of ≥3.5 and Fisher test (pval≤0.05). Statistical analysis for plant emergence determined by % emergence ≥50 and T test (pval≤0.05), as well as Wilcox test (pval≤0.05).

[4] = system: ABUTH; experiment: In-planta LTP post-emergence, visual phenotype; format: in vivo, Abutilon theophrasti; conditions: dicot
Protocol: as §1, §2, §3

[5] = system: SETVI; experiment: In-planta LTP pre-emergence, visual phenotype; format: in vivo, Setaria viridis; conditions: Setaria viridis, 432 h, monocot
Procedure, shortened: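 Compounds in water sprayed pre-emergence one day after sowing 10-15 seeds per pot in washed sand, at 2 kg/ha or six rates from 1-0.0312 kg/ha. Greenhouse 26/20° C day/night. Visual phenotype scored 0-6 at 18 DAA; effect called at median ≥3.5 with Fisher test p≤0.05.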

[6] = system: MATCA; experiment: In-planta LTP pre-emergence, visual phenotype; format: in vivo, Matricaria chamomilla; conditions: dicot
Protocol: as §4

[7] = system: POAAN; experiment: In-planta LTP post-emergence, visual phenotype; format: in vivo, Poa annua; conditions: monocot
Protocol: as §1, §2, §3

[8] = system: Eragrostis teff; experiment: HTPS - Monocot - Pre-emergence; format: in vivo; conditions: N/A: not active; for Emax: read-out: HTPS - Monocot - Pre Max effect
Procedure, shortened: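 Pre-emergence: compound in 50% acetone applied at 30 μL/well onto sown sand (Arabidopsis or Eragrostis teff), max 1.5 Kg/Ha, 2.5-fold dilutions. Green area imaged by RGB, normalized to give % inhibition; ED50, ED75, ED90 from log-dose curves, t-test versus controls.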

[9] = system: ECHCO; experiment: In-planta LTP post-emergence, visual phenotype; format: in vivo, Echinochloa colona; conditions: monocot
Protocol: as §1, §2, §3

[10] = read-out: DE Disturbed emergence (% effect)
[11] = read-out: IG Inhibited growth (% effect)

Structure (SMILES)	IG Inhibited growth (% effect) [1]	HTPS - Dicot - Pre ED50 [2]	Emax [2]	IG Inhibited growth (% effect) [3]	BL Bleaching (% effect) [4]	pest or weed control at 2000 g/ha [5, 10]	pest or weed control at 2000 g/ha [5, 11]	IG Inhibited growth (% effect) [6]	BL Bleaching (% effect) [3]	DAB Disturbed apical bud (% effect) [3]	DE Disturbed emergence (% effect) [3]	IG Inhibited growth (% effect) [7]	HTPS - Monocot - Pre ED50 [8]	Emax [8]	IG Inhibited growth (% effect) [9]
C#CCOC(=O)c1cccc(OCC(C)N)c1 (centres unmarked) [Compound 111]	IG (60) %	24 g/ha	100%	IG (40) %	BL (40) %	100%	100%	–	–	–	–	–	–	–	–
CCCCOC(=O)c1cccc(OCC(C)N)c1 (centres unmarked) [Compound 112]	–	20 g/ha	100%	–	–	80%	100%	IG (60) %	–	–	–	–	–	–	–
C[C@@H](N)COc1cccc(C(=O)O)c1 [Compound 154]	IG (60) %	–	–	IG (80), %	–	100%	–	–	BL (60) %	DAB (60), %	DE (40), %	IG (60) %	150 g/ha	100%	–
CC(N)COc1cccc(C(=O)O)c1 (centres unmarked) [Compound 106]	–	33 g/ha	100%	–	BL (60) %	100%	100%	–	–	–	–	–	380 g/ha	87%	IG^1 (60) %
